Measurements as given in PubChem BioAssay AID687022 (Broad Institute, 2013).
Calls of active or inactive are those of the source.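 Rule for the calls: active = Fitted curve of melting temperature shift crosses the 1.0 threshold at or below the sample's highest valid tested concentration; inconclusive = Flat fit with activity 30 to 70, or invalid fit; inactive = Opposite direction, flat within 30, or no crossing.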

biological target: Fibroblast growth factor 22 (Homo sapiens) (UniProt Q9HCT0); assay: binders of human FGF22 protein, dose response, FGF22 synaptogenesis inhibitor project, biophysical, thermal shift, cherry-pick (AID 687022); conditions: recombinant FGF22 thermal shift, SYPRO orange melting
Sequence (Q9HCT0 whole entry, looked up): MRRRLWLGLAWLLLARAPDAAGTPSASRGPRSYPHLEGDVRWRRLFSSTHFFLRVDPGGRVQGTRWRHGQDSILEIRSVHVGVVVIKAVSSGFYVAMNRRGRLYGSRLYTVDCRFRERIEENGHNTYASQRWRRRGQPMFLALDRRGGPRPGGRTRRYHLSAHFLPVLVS

Row | SMILES | AbsAC1 (concentration giving Tm-shift threshold 1.0)
1 | O=C(Nc1nccs1)c1ccc(S(=O)(=O)NCc2cccs2)cc1 | 11.1 µM
2 | Oc1cc(O)cc(C=Cc2ccc(O)c(O)c2)c1 | 11.9 µM
3 | O=C(Nc1nc(=O)n(C(=O)C2CC2)s1)c1ccccc1 | 20.7 µM
4 | COc1ccc(-c2nc3ccc([N+](=O)[O-])cc3[nH]2)cc1 | 1.99 µM
5 | CC(=O)C1=C(O)C(=O)N(c2ccc(S(=O)(=O)Nc3nccs3)cc2)C1c1ccc(F)cc1 (centres undefined) | > 19.5 µM (inactive)
6 | CC(=O)Nc1ccc(S(=O)(=O)Nc2nc3ccc([N+](=O)[O-])cc3s2)cc1 | 23 µM
7 | Cc1ccc(-c2n[nH]c(=S)n2/N=C/c2c(C)[nH]n(-c3ccccc3)c2=O)cc1 | 4.65 µM
8 | C[C@H](CO)N1C[C@H](C)[C@H](CN(C)C(=O)Nc2ccc(C(F)(F)F)cc2)Oc2cc(-c3ccncc3)ccc2S1(=O)=O | 10.3 µM
9 | Cc1nc2c(C)cccc2cc1C(=O)N/N=C/c1ccc(O)cc1 | 14.8 µM
10 | CC(=O)Nc1cccc(NC(=O)c2ccc3[nH]c(C)c(C)c3c2)c1 | 5.11 µM
11 | CCOc1ccc(N2C(=O)C(CC(=O)Nc3ccccc3)N(Cc3ccccn3)C2=S)cc1 (centres undefined) | 4.24 µM
12 | O=C(N/N=C/c1ccc(O)cc1)c1cccc(N/N=C/c2ccc(O)cc2)c1 | 5.77 µM
13 | C[C@@H]1CN([C@H](C)CO)S(=O)(=O)c2ccc(C3=CCCC3)cc2O[C@@H]1CN(C)C(=O)Nc1ccc2c(c1)OCO2 | 20.2 µM
14 | O=C(CC(=O)c1ccccc1)Nc1cccc([N+](=O)[O-])c1 | 4.49 µM
15 | COc1cc(/C=N/NC(=O)CCn2c3ccccc3c3ccccc32)ccc1O | 15.9 µM
16 | CN1C(=O)c2cc(NC(=O)c3cccc(F)c3)ccc2OC[C@@H]2O[C@H](CC(=O)N3CCc4ccccc4C3)CC[C@@H]21 | 17.2 µM
17 | Oc1ccc(-c2nnc(Nc3cccc(O)c3)c3ccccc23)cc1 | 5.28 µM
18 | O=C(Nc1ccccc1)N1C[C@H]2[C@@H](c3ccccc31)[C@@H](CO)N2C(=O)c1ccncc1 | 41.2 µM
19 | O=C(Nc1cc(Cl)cc(Cl)c1)N[C@@H]1CC[C@@H](CCNS(=O)(=O)c2cccc(F)c2)O[C@@H]1CO | 5.64 µM
20 | S=C(NCCN1CCOCC1)Nc1ccc(-c2nc3ccccc3[nH]2)cc1 | 7.5 µM

Row | SMILES | AbsAC1 (concentration giving Tm-shift threshold 1.0)
21 | CCOC(=O)c1sc(NC(=O)Nc2ccccc2)cc1C | 10.2 µM
22 | COc1cc(NC(=O)c2ccc3c(c2)OCCO3)ccc1NC(=O)c1cccs1 | 3.85 µM
23 | NC(=O)c1ccsc1NC(=O)COC(=O)CCCOc1ccccc1 | 5.37 µM
24 | O=C(NCc1ccc(Cl)cc1)c1n[nH]c([N+](=O)[O-])c1Cl | 5.18 µM
25 | Cc1ccc(NC(=O)Nc2cccnc2)cc1 | 27.1 µM
26 | N#Cc1ccc(NC(=O)Nc2cccc(C#N)c2)cc1 | 4.49 µM
27 | O=C(N/N=C/c1c[nH]c2ccccc12)c1ccc(O)c(O)c1 | 3.74 µM
28 | Cc1cc(C)cc(NS(=O)(=O)c2cc3[nH]c(=O)c(=O)[nH]c3cc2C)c1 | 10.2 µM
29 | CC(=O)Nc1ccc(S(=O)(=O)N(CCc2ccccc2)CC(=O)N/N=C/c2ccc(C(=O)O)cc2)cc1 | 7.42 µM
30 | C/C(=N\NC(=O)c1nnn(-c2nonc2N)c1CSc1ccc(C)cc1)c1cccnc1 | 37.4 µM
31 | CCOC(=O)c1c(C)[nH]c(C)c1C(=O)COC(=O)/C=C/c1ccccc1[N+](=O)[O-] | 23.9 µM
32 | Cc1ccc(S(=O)(=O)N(C)C[C@@H]2Oc3cc(Br)ccc3S(=O)(=O)N([C@@H](C)CO)C[C@H]2C)cc1 | 29.2 µM
33 | COC(=O)C[C@H]1CC[C@@H]2[C@@H](COc3ccc(NC(=O)Nc4cccc(C#N)c4)cc3C(=O)N2C)O1 | 7.79 µM
34 | O=C(Nc1ccc(F)cc1)N[C@H]1CC[C@@H](CCn2cc(-c3ccccc3F)nn2)O[C@@H]1CO | 7.38 µM
35 | O=C(CN1C(=O)NC2(CCOc3ccccc32)C1=O)Nc1ccc(Br)cc1F (centres undefined) | 16.6 µM
36 | C/C(=N\NC(=O)c1cccc(S(=O)(=O)N2CCOCC2)c1)c1ccc(OC(F)F)cc1 | 21.9 µM
37 | O=C(CNC(=O)c1cccc(Br)c1)N/N=C/c1cc(Br)cc(Br)c1O | > 38 µM (inactive)
38 | COc1ccc(/C=N/Nc2ccc([N+](=O)[O-])cc2)cc1O | 4.37 µM
39 | COc1ccc(/C=N/NC(=O)c2ccc(NS(=O)(=O)c3cccs3)cc2)cc1 | 7.28 µM
40 | Cc1cccc(NC(=O)Nc2ccc(S(N)(=O)=O)cc2)c1 | 4.36 µM

Row | SMILES | AbsAC1 (concentration giving Tm-shift threshold 1.0)
41 | Cc1ccsc1C(=O)NNC(=O)c1ccc(NS(=O)(=O)c2cccs2)cc1 | 11.6 µM
42 | Cc1cccc(S(=O)(=O)N2C[C@H](O)COC[C@H]3O[C@H](CC(=O)Nc4ccccc4)CC[C@@H]32)c1 | 7.19 µM
43 | COc1cccc(NC(=O)N(C)C[C@@H]2Oc3cc(-c4ccccc4F)ccc3S(=O)(=O)N([C@@H](C)CO)C[C@@H]2C)c1 | 2.97 µM
44 | Cc1ccccc1-n1c(O)c(/C=N/NC(=O)c2ccccc2O)c(=O)[nH]c1=S | 3.51 µM
45 | Oc1ccc(-c2csc(Nc3ccccn3)n2)c(O)c1 | 5.13 µM
46 | CCc1nnc(NS(=O)(=O)c2ccc(NC(=S)NC(=O)/C=C/c3ccc([N+](=O)[O-])cc3)cc2)s1 | 4.73 µM
47 | CCOc1ccc(NS(=O)(=O)c2ccc(C(=O)NNC(=O)c3ccccc3O)cc2)cc1 | > 38 µM (inactive)
48 | Cc1ccn(-c2ccc(NC(=O)c3cccs3)cc2)n1 | 3.72 µM
49 | Nc1nonc1N/N=C\c1ccccc1 | 4.88 µM
50 | O=C(CNS(=O)(=O)c1ccccc1)OCC(=O)c1c[nH]c2ccccc12 | 9.88 µM
51 | O=C(Nc1ccc(S(=O)(=O)N2CCCC2)cc1)c1cccs1 | 9.33 µM
52 | C[C@@H]1CN([C@@H](C)CO)S(=O)(=O)c2ccc(-c3ccncc3)cc2O[C@@H]1CN(C)C(=O)Nc1ccc(F)cc1 | 4.72 µM
53 | O=[N+]([O-])c1cccc(S(=O)(=O)Nc2ccc(-c3ccc(N4CCOCC4)nn3)cc2)c1 | 7.01 µM
54 | COc1cccc(NC(=O)N(C)C[C@H]2Oc3cc(-c4ccccc4F)ccc3S(=O)(=O)N([C@H](C)CO)C[C@H]2C)c1 | 4.99 µM
55 | Cc1noc(C)c1NC(=O)N[C@@H]1C=C[C@H](CC(=O)Nc2ccc(-c3ccccc3)cc2)O[C@@H]1CO | 5.28 µM
56 | COc1ccc(C(=O)N2CCCCC2)cc1S(=O)(=O)Nc1cccc(C(=O)O)c1 | 9.12 µM
57 | O=C1Nc2cc(Cl)c(Cl)cc2N(O)N1c1ccc(Cl)cc1 | 4.98 µM
58 | O=C(N/N=C/c1c[nH]c2ccccc12)c1cccc(O)c1 | 2.9 µM
59 | COc1ccc(NS(=O)(=O)c2cccc(C(=O)NNC(=O)c3ccccc3O)c2)cc1 | 10.4 µM
